Read-outs that look alike come from different tables or passages of the source.
Legend:
[1] = system: A375; experiment: Cell viability of A375 melanoma cells by Trypan Blue exclusion; assay type: cell-based; conditions: Homo sapiens, A-375, viable cells as mean percentage of control cells ± SEM, N=3
Protocol: The BRAFV600E mutant melanoma line A375 (CRL-1619) was purchased from ATCC (Manassas, VA, USA). The A375 were maintained in glutamine-containing DMEM supplemented with 10% heat-inactivated fetal bovine serum, penicillin (100 units/ml) and streptomycin ([…]).
Cell viability was measured by the Trypan Blue exclusion method. Briefly, cells washed with PBS were harvested by a 3-minute incubation in 0.05% trypsin before neutralization with serum containing medium. An aliquot of the cell suspension was then mixed 1:1 with a 0.4% Trypan blue solution and viable cells were counted within 5 minutes on Kova slides under an optical microscope. Results are expressed as the mean percentage of control cells±SEM. N=3

[2] = system: NCI 60 cell panel; experiment: DTP-NCI assay (NCI 60 cell screen, single high dose); assay type: cell-based; conditions: Homo sapiens, 48 h; single high dose 10^-5 M, full NCI 60 cell panel; growth relative to no-drug control and to time zero number of cells; read-out: DTP-NCI (mean of the percent growth of treated cells)
Protocol: The effect of 10 μM of MTF504 was monitored on a panel 60 cell lines representing nine distinct tumour types: leukemia, colon, lung, central nervous system, renal, melanoma, ovarian, breast and prostate. Briefly, the compound was sent to the US National Cancer Institute where its antineoplastic effects were monitored on the panel of cell lines after 48 hours of treatment following a standardized protocol.
All compounds submitted to the NCI 60 Cell screen are tested initially at a single high dose (10^-5 M) in the full NCI 60 cell panel. The results are reported as a mean of the percent growth of treated cells. The number reported is growth relative to the no-drug control, and relative to the time zero number of cells. This allows detection of […].

[3] = 24 h, read-out: Viab A375 5 μM/24 h
[4] = 48 h, read-out: Viab A375 5 μM/48 h
[5] = 24 h, read-out: Viab A375 10 μM/24 h
[6] = 48 h, read-out: Viab A375 10 μM/48 h

## N=C(NC(=O)NC1CC1)Nc1nc2ccccc2s1 [MTF214, N—(N-(benzo[d]thiazol-2-yl)carbamimidoyl)cyclopropylamine-1-carboxamide]
[1]; [3]
  viability at 5 µM: 98.2%
[1]; [4]
  viability at 5 µM: 76.6%
[1]; [5]
  viability at 10 µM: 51.5%
[1]; [6]
  viability at 10 µM: 87.7%

## N=C(NC(=O)Nc1ccccc1)Nc1nc2ccccc2s1 [MTF314, N—(N-(benzo[d]thiazol-2-yl)carbamimidoyl)-anilinocarboxamide]
[1]; [3]
  viability at 5 µM: 53.5%
[1]; [4]
  viability at 5 µM: 12.3%
[1]; [5]
  viability at 10 µM: 32.7%
[1]; [6]
  viability at 10 µM: 7.6%
[2]
  activity at 10 µM: 37.4%

## N=C(NC(=O)Nc1cccc(Cl)c1)Nc1nc2ccccc2s1 [MTF415, N-benzo[d]thiazol-2-yl-N″-(3-chloroaniline-carbonyl)-guanidine]
[1]; [3]
  viability at 5 µM: 93.5%
[1]; [4]
  viability at 5 µM: 32.9%
[1]; [5]
  viability at 10 µM: 58.3%
[1]; [6]
  viability at 10 µM: 19.9%
[2]
  activity at 10 µM: 35.4%

## N=C(NC(=O)Nc1cccc2ccccc12)Nc1nc2ccccc2s1 [MTF418, N-benzo[d]thiazol-2-yl-N″-(naphtalen-1-amine-carbonyl)-guanidine]
[1]; [3]
  viability at 5 µM: 16.5%
[1]; [4]
  viability at 5 µM: 16.7%
[1]; [5]
  viability at 10 µM: 41%
[1]; [6]
  viability at 10 µM: 4.6%
[2]
  activity at 10 µM: 26.1%

## COc1ccccc1NC(=O)NC(=N)Nc1nc2ccccc2s1 [MTF419, N-benzo[d]thiazol-2-yl-N″-(2-methoxyaniline-carbonyl)-guanidine]
[1]; [3]
  viability at 5 µM: 62.6%
[1]; [4]
  viability at 5 µM: 18.8%
[1]; [5]
  viability at 10 µM: 56.8%
[1]; [6]
  viability at 10 µM: 21.8%
[2]
  activity at 10 µM: 26.7%

## Cc1cccc(NC(=O)NC(=N)Nc2nc3ccccc3s2)c1 [MTF420, N-benzo[d]thiazol-2-yl-N″-(3-methylaniline-carbonyl)-guanidine]
[1]; [3]
  viability at 5 µM: 59%
[1]; [4]
  viability at 5 µM: 24.8%
[1]; [5]
  viability at 10 µM: 48.9%
[1]; [6]
  viability at 10 µM: 20.4%
[2]
  activity at 10 µM: 32.9%

## N=C(NC(=O)Nc1ccc(Cl)cc1)Nc1nc(-c2ccccc2)cs1 [MTF426, N-4-phenylthiazol-2-yl-N″-(4-chloroaniline-carbonyl)-guanidine]
[1]; [3]
  viability at 5 µM: 109%
[1]; [4]
  viability at 5 µM: 46.4%

## N=C(NC(=O)Nc1ccc(Br)cc1)Nc1nc(-c2cccc([N+](=O)[O-])c2)cs1 [MTF427, N-4-(3-nitrophenyl) thiazol-2-yl-N″-(4-bromoaniline-carbonyl)-guanidine]
[1]; [3]
  viability at 5 µM: 94.2%
[1]; [4]
  viability at 5 µM: 34.4%
[2]
  activity at 10 µM: 72.5%

## N=C(NC(=O)Nc1ccc(Cl)cc1)Nc1nc(-c2cccc([N+](=O)[O-])c2)cs1 [MTF428, N-4-(3-nitrophenyl) thiazol-2-yl-N″-(4-chloroaniline-carbonyl)-guanidine]
[1]; [3]
  viability at 5 µM: 128%
[1]; [4]
  viability at 5 µM: 50.2%

## Cc1nc(NC(=N)NC(=O)Nc2ccc(Br)cc2)sc1C [MTF429, 4,5-dimethylthiazol-2-yl-N″-(4-bromoaniline-carbonyl)-guanidine]
[1]; [3]
  viability at 5 µM: 94.2%
[1]; [4]
  viability at 5 µM: 39.1%

## N=C(NC(=O)Nc1cccc2ccccc12)Nc1nc(-c2cccc([N+](=O)[O-])c2)cs1 [MTF430, N-4-(3-nitrophenyl) thiazol-2-yl-N″-(naphtalen-1-amine-carbonyl)-guanidine]
[1]; [3]
  viability at 5 µM: 75.8%
[1]; [4]
  viability at 5 µM: 25.3%
[2]
  activity at 10 µM: 89.2%

## Cc1cccc(NC(=O)NC(=N)Nc2nc(-c3cccc([N+](=O)[O-])c3)cs2)c1 [MTF431, N-4-(3-nitrophenyl) thiazol-2-yl-N″-(3-methylaniline-carbonyl)-guanidine]
[1]; [3]
  viability at 5 µM: 95.4%
[1]; [4]
  viability at 5 µM: 41.6%

## COc1cccc(NC(=O)NC(=N)Nc2nc(-c3cccc([N+](=O)[O-])c3)cs2)c1 [MTF432, N-4-(3-nitrophenyl) thiazol-2-yl-N″-(3-methoxyaniline-carbonyl)-guanidine]
[1]; [3]
  viability at 5 µM: 115%
[1]; [4]
  viability at 5 µM: 29.8%
[2]
  activity at 10 µM: 74.8%

## COc1ccccc1NC(=O)NC(=N)Nc1nc(-c2ccccc2)cs1 [MTF433, N-4-phenylthiazol-2-yl-N″-(2-methoxyaniline-carbonyl)-guanidine]
[1]; [3]
  viability at 5 µM: 109%
[1]; [4]
  viability at 5 µM: 43.9%

## COc1ccccc1NC(=O)NC(=N)Nc1nc(-c2cccc([N+](=O)[O-])c2)cs1 [MTF434, N-4-(3-nitrophenyl) thiazol-2-yl-N″-(2-methoxyaniline-carbonyl)-guanidine]
[1]; [3]
  viability at 5 µM: 63.8%
[1]; [4]
  viability at 5 µM: 50.7%

## N=C(NC(=O)Nc1cccc2ccccc12)Nc1nc(-c2ccccc2)cs1 [MTF435, N-4-phenylthiazol-2-yl-N″-(naphtalen-1-amine-carbonyl)-guanidine]
[1]; [3]
  viability at 5 µM: 81%
[1]; [4]
  viability at 5 µM: 84.6%

## Cc1ccccc1NC(=O)NC(=N)Nc1nc2ccccc2s1 [MTF495, N-benzo[d]thiazol-2-yl-N″-(2-methylaniline-carbonyl)-guanidine]
[1]; [3]
  viability at 5 µM: 38.6%
[1]; [4]
  viability at 5 µM: 8%
[2]
  activity at 10 µM: 25.9%

From patent publication US20260209196A1, “AMIDINOUREA DERIVATIVES AND THEIR USE IN THE TREATMENT OF CANCER” (UNIVERSITE COTE D'AZUR, priority 2022, published 2026)
